Laboratory results taken from patent US5962487A, “Antipicornaviral compounds and methods for their use and preparation” (Agouron Pharmaceuticals, Inc., priority 1997, dated 1999).

How the values were obtained:
[1] = tested on: HRV-14; experiment: Antirhinoviral HI-HeLa Cell Culture Assay (cell protection, XTT), HRV-14; format: cell-based, human rhinovirus; conditions: for TI: CC50/EC50, HRV serotype-14, 2880 min; for EC50: Rhinovirus B, HRV14, 48 h, HRV serotype-14 infected HI-HeLa cells, XTT, two days
Description: In the Cell Protection Assay, the ability of compounds to protect cells against HRV infection was measured by the XTT dye reduction method. This method is described in O. S. Weislow, R. Kiser, D. L. Fine, J. Bader, R. H. Shoemaker, and M. R. Boyd, J. Natl. Cancer Inst. 1989, 81, 577-586, which document is entirely incorporated herein by reference.
(§1) HI-HeLa cells were infected with HRV-14 (unless otherwise noted) at a multiplicity of infection (m.o.i.) of 0.13 (virus particles/cell) or mock-infected with medium only. Infected or mock-infected cells were resuspended at 8×10^5 cells per mL and incubated with appropriate concentrations of compounds of formulas I and II. Two days later, XTT/PMS was added to test plates, and the amount of formazan produced was quantified spectrophotometrically at 450/650 nm. The EC50 was calculated as the concentration of compound that increased the percentage of formazan production in compound-treated, virus-infected cells to 50% of that produced by compound-free mock-infected cells. The 50% cytotoxic dose (CC50) was calculated as the concentration of compound that decreased the percentage of formazan produced in compound-treated, mock-infected cells to 50% of that produced in compound-free, mock-infected cells. The therapeutic index (TI) was calculated by dividing the CC50 by the EC50.
(§2) All strains of human rhinovims (HRV) for use in this assay were purchased from American Type Culture Collection (ATCC), except for HRV serotype-14, which was produced from the infectious cDNA clone, constructed and supplied to us by Dr. Roland Rueckert at the Institute for Molecular Virology, University of Wisconsin, Madison, Wis. HRV stocks were propagated, and antiviral assays were performed in HI-HeLa (ATCC). Cells were grown in Minimal Essential Medium, available from Life Technologies, with 10% fetal bovine serum.
The compounds were tested against control compounds WIN 51711, WIN 52084, and WIN 54954, all obtained from Sterling-Winthrop Pharmaceuticals, and control compound Pirodavir, obtained from Janssen Pharmaceuticals. Antiviral data obtained for the test compounds are shown in Table 2 where all data are for HRV serotype-14 unless otherwise noted in parentheses.

[2] = molecular target: T1, Rhinovirus 3C protease (RVP) serotype-14 (Human rhinovirus 14, UniProt P03303); experiment: Inhibition of Rhinovirus Protease, serotype 14 (FRET assay); format: biochemical; conditions: for kinact/KI: read-out: kobs/I; for Ki: RVP serotype-14, 10 minute preincubation with 50 nM RVP prior to addition of substrate, read-out: INHIB (Ki)
T1 construct: Recombinant Rhinovirus 3C proteases from serotypes 14, 16, 2 or 89 were prepared; made in house
T1 sequence (P03303 1538-1719): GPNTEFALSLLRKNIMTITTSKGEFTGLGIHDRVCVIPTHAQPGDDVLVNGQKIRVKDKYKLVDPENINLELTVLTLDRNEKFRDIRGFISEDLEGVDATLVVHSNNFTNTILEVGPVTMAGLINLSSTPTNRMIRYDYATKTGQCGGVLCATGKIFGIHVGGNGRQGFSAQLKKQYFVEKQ
Description: (§3) Stock solutions (50 mM, in DMSO) of various compounds were prepared; dilutions were in the same solvent. Recombinant Rhinovirus 3C proteases from serotypes 14, 16, 2 or 89 were prepared by the following standard chromatographic procedures: (1) ion exchange using Q Sepharose Fast Flow from Pharmacia; (2) affinity chromatography using Affi-Gel Blue from Biorad; and (3) sizing using Sephadex G-100 from Pharmacia. Assays contained 2% DMSO, 50 mM tris pH 7.6, 1 mM EDTA, a compound at the indicated concentrations, approximately 1 μM substrate, and 50-100 nM protease. For Ki determinations, the compound and the enzyme were preincubated for 10 minutes at 30° C. prior to addition of the substrate (substrate start). The kobs/I values were obtained from reactions initiated by addition of enzyme rather than substrate. RVP activity is measured in the fluorescence resonance energy transfer assay. The substrate was (N-terminal) DABCYL-(Gly-Arg-Ala-Val-Phe-Gln-Gly-Pro-Val-Gly)-EDANS. In the uncleaved peptide, the EDANS fluorescence was quenched by the proximal DABCYL moiety. When the peptide was cleaved, the quenching was relieved, and activity was measured as an increase in fluorescence signal.
(§4) In the above table, all data is for RVP serotype-14 unless otherwise noted in parentheses. All strains of human rhinovirus (HRV) were purchased from American Type Culture Collection (ATCC), except for serotype 14, which was produced from the infectious cDNA clone constructed and supplied to us by Dr. Roland Rueckert at the Institute for Molecular Virology, University of Wisconsin, Madison, Wis. The column designated INHIB represents the percent inhibition, with the concentration of the compound in μM indicated in parentheses, unless Ki was assigned as designated by (Ki), at 10 minute preincubation with 50 nM RVP prior to addition of substrate was used. The data in the column designated kobs/I was measured from progress curves in enzyme start experiments.

[3] = molecular target: T2, Rhinovirus 3C protease (RVP) serotype 16 (Human rhinovirus 16, UniProt Q82122); experiment: Inhibition of Rhinovirus Protease, serotype 16 (FRET assay); format: biochemical; conditions: enzyme start experiments, read-out: kobs/I
T2 construct: Recombinant Rhinovirus 3C proteases from serotypes 14, 16, 2 or 89 were prepared; made in house
T2 sequence (Q82122 1511-1693): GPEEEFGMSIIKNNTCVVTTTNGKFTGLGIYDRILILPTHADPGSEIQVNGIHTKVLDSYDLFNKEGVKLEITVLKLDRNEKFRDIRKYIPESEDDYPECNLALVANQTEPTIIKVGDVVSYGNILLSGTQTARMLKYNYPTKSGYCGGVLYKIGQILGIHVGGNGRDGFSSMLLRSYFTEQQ
Description: as §3, §4

[4] = in vitro; format: cell-based; conditions: human, hi-hela cells
Description: as §1, §2

[5] = molecular target: T3, Rhinovirus 3C protease (RVP) serotype 2 (Human rhinovirus 2, UniProt P04936); experiment: Inhibition of Rhinovirus Protease, serotype 2 (FRET assay); format: biochemical; conditions: enzyme start experiments, read-out: kobs/I
T3 construct: Recombinant Rhinovirus 3C proteases from serotypes 14, 16, 2 or 89 were prepared; made in house
T3 sequence (P04936 1508-1690): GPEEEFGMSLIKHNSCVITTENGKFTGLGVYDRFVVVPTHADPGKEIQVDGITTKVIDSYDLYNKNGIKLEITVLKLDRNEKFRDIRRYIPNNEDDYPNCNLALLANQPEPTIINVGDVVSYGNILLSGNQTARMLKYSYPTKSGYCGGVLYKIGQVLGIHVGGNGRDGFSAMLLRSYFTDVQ
Description: as §3, §4

| Structure (SMILES) | TI [1] | EC50 [1] [µM] | kinact/KI [2] [M⁻¹ s⁻¹] | kinact/KI [3] [M⁻¹ s⁻¹] | CC50 at 48 h [4] [µM] | kinact/KI [5] [M⁻¹ s⁻¹] | Ki [2] [µM] |
| --- | --- | --- | --- | --- | --- | --- | --- |
| CCOC(=O)/C=C/[C@H](CCC(N)=O)NC(=O)[C@H](Cc1ccc(C)cc1)N(C)C(=O)[C@H](CCc1ccccc1)NC(=O)SCc1ccccc1 [Compound 13, Ethyl-3-[Benzylthiocarbonyl-L-hPhe-L-N-Me-(4-Me-Phe)-L-Gln] -E-Propenoate] | 148 | 0.12 | 356000 | 11700 | 17.8 | 3980 | – |
| CCSC(=O)N[C@@H](CC(C)C)C(=O)N(C)[C@@H](Cc1ccccc1)C(=O)N[C@H](/C=C/C(=O)N(C)OC)CCC(N)=O [Compound 36, N-Methoxy-N-Methyl-3-(Ethylthiocarbonyl-L-Leu-L-N-Me-Phe-L-Gln)-E-Propenamide] | > 9 | 11.2 | 2000 | 750 | > 100 | 400 | – |
| CCOC(=O)/C=C/[C@H](CCC(N)=O)NC(=O)[C@H](Cc1ccccc1)N(C)C(=O)[C@@H](NC(=O)SCC)C(C)C [Compound 34, Ethyl-3-(Ethylthiocarbonyl-L-Val-L-N-Me-Phe-L-Gln)-E-Propenoate] | > 312 | 0.32 | 13400 | 2060 | > 100 | 940 | – |
| CCOC(=O)/C=C/[C@H](CCC(N)=O)NC(=O)[C@H](Cc1ccccc1)N(C)C(=O)[C@@H](NC(=O)SC1CCCC1)C(C)C [Compound 35, Ethyl-3-(Cyclopentylthiocarbonyl-L-Val-L-N-Me-PHe-L-Gln-)-E-Propenoate] | > 526 | 0.19 | 22500 | 3480 | > 100 | 1600 | – |
| CCOC(=O)/C=C/[C@H](CCC(N)=O)NC(=O)[C@H](Cc1ccccc1)N(C)C(=O)[C@H](CC(C)C)NC(=O)SCc1ccccc1 [Compound 15, Ethyl-3-(Benzylthiocarbonyl-L-Leu-L-N-Me-Phe-L-Gln)-E-Propenoate] | 192 | 0.26 | 36400 | 5600 | 50.1 | 3500 | 2.5 |
| CCOC(=O)/C(C)=C/[C@H](CCC(N)=O)NC(=O)[C@H](Cc1ccc(C)cc1)N(C)C(=O)[C@H](CCc1ccccc1)NC(=O)SCc1ccccc1 [Compound 14, Ethyl-2-Methyl-3-[Benylthiocarbonyl-L-hPhe-L-N-Me-(4-Me)-Phe-L-Gln]-E-Propenoate] | 49 | 0.32 | 56400 | 1800 | 15.8 | 800 | 0.8 |
| CCOC(=O)/C=C/[C@H](CCC(N)=O)NC(=O)C1CNCCN1C(=O)[C@H](CC(C)C)NC(=O)OCc1ccccc1 (mixture of isomers) [Compound 27, Ethyl-3-(CBZ-L-Leu-DL-Pipz-L-Gln)-E-Propenoate] | – | > 320 | 102 | 90 | > 320 | 87 | – |
| CCOC(=O)/C=C/[C@H](CCC(N)=O)NC(=O)[C@@H]1CCCN1C(=O)[C@H](CC(C)C)NC(=O)SCC [Compound 24, Ethyl-3-(Ethythiocarbonyl-L-Leu-L-Pro-L-Gln)-E-Propenoate] | > 10 | 10 | 22000 | 9300 | > 100 | 7100 | 8 |
| CCOC(=O)/C=C/[C@H](CCC(N)=O)NC(=O)[C@@H]1[C@@H](C)CCN1C(=O)[C@H](CC(C)C)NC(=O)OCc1ccccc1 [Compound 21, Ethyl-3-[CBZ-L-Leu-L-(3S-Methyl)-Pro-L-Gln]-E-Propenoate] | > 15 | 22 | 256 | – | > 320 | – | 50 |
